Active and inactive are the calls of the source. No cut-off for these calls is given here.
Legend:
THP-1 = test: Cytotoxicity against human THP-1 cells assessed as inhibition of cell viability incubated for 72 hrs by CCK8 assay; type: functional, cell-based; settings: THP-1, 72 h
[1] = Oral bioavailability in Sprague-Dawley rat at 50 mg/kg measured for 0.083 to 24 hrs by HPLC analysis; type: ADME, organism-based; settings: in vivo, time 0.083-24 hrs
Mus musculus [2] = test: Anti-aplastic anemia activity in C57BL/6J mouse model of immune-mediated bone marrow failure assessed as increase in body weight at 5 to 15 mg/kg, IG qd treated for 21 days; type: functional, organism-based; settings: dose 5-15 mg/kg, time 21.0 day
Mus musculus [3] = test: Anti-aplastic anemia activity in BALB/c mouse model of immune-mediated bone marrow failure assessed as increase in animal survival at 10 mg/kg, po treated for 14 days; type: functional, organism-based; settings: time 14.0 day
Mus musculus [4] = test: Anti-aplastic anemia activity in C57BL/6J mouse model of immune-mediated bone marrow failure assessed as CD8+ T cells at 15 mg/kg, IG qd treated for 12 days by flow cytometry (reference value: 72.15 %); type: functional; settings: time 12 day
Mus musculus [5] = test: Anti-aplastic anemia activity in C57BL/6J mouse model of immune-mediated bone marrow failure assessed as increase in dietary intake at 5 to 15 mg/kg, IG qd treated for 21 days; type: functional, organism-based; settings: dose 5-15 mg/kg, time 21.0 day
CTLL-2 [6] = test: Induction of ferroptosis in IL-2-stimulated mouse CTLL-2 cells assessed as increase in intracellular lipid peroxidation level at 30 uM incubated for 6 hrs followed by Fer-1 addition measured after 10 hrs by flow cytometry; type: functional, cell-based; settings: time 16.0 hrs
CD8-positive T cell [7] = test: Inhibition of CD3/CD28-activated CD8-positive T cell activation in BALB/c mouse lymph nodes assessed as decrease in cluster formation of cells at 1 to 10 uM incubated for 72 hrs by microscopy; type: functional, cell-based; settings: Lymph node, dose 1-10 µM
CD8-positive T cell [8] = test: Inhibition of CD3/CD28-activated CD8-positive T cell activation in BALB/c mouse lymph nodes assessed as decrease in TNF-alpha level at 1 to 10 uM incubated for 72 hrs by ELISA; type: functional, tissue-based; settings: Lymph node, dose 1-10 µM
CTLL-2 [9] = test: Induction of ferroptosis in IL-2-stimulated mouse CTLL-2 cells assessed as increase in pMEK level at 30 uM incubated for 6 hrs followed by Fer-1 addition measured after 10 hrs by Western blot analysis; type: functional, cell-based; settings: time 16.0 hrs
CD8-positive T cell [10] = test: Inhibition of CD3/CD28-activated CD8-positive T cell activation in BALB/c mouse lymph nodes assessed as decrease in CD69 expression level at 1 to 10 uM incubated for 72 hrs by flow cytometry; type: functional, tissue-based; settings: Lymph node, dose 1-10 µM
CTLL-2 [11] = test: Induction of ferroptosis in mouse CTLL-2 cells assessed as decrease in GSH level incubated for 16 hrs; type: functional, cell-based; settings: dose 7.5-30 µM
RAW264.7 = test: Cytotoxicity against mouse RAW264.7 cells assessed as inhibition of cell viability incubated for 72 hrs by CCK8 assay; type: functional, cell-based; settings: RAW264.7, 72 h
Mus musculus [12] = test: Anti-aplastic anemia activity in BALB/c mouse model of immune-mediated bone marrow failure assessed as decrease in abnormal proportion of lymphocytes in bone marrow at 10 mg/kg, po treated for 14 days by H and E staining based analysis; type: functional, organism-based; settings: time 14.0 day
CTLL-2 [13] = test: Induction of ferroptosis in mouse CTLL-2 cells assessed as increase in intracellular Ca2+ concentration at 10 uM incubated for 45 mins in presence of CM4620 by Fluo-4 AM dye based analysis; type: functional, cell-based
CD8-positive T cell [14] = test: Inhibition of CD3/CD28-activated CD8-positive T cell activation in BALB/c mouse lymph nodes assessed as decrease in lactate production at 1 to 10 uM incubated for 72 hrs; type: functional, tissue-based; settings: Lymph node, dose 1-10 µM
CTLL-2 [15] = test: Induction of ferroptosis in IL-2-stimulated mouse CTLL-2 cells assessed as increase in p-p38 level at 30 uM incubated for 6 hrs followed by Fer-1 addition measured after 10 hrs by Western blot analysis; type: functional, cell-based; settings: time 16.0 hrs
CTLL-2 [16] = test: Induction of ferroptosis in mouse CTLL-2 cells assessed as increase in ROS level at 10 uM incubated for 45 mins in presence of 2-APB; type: functional, cell-based
IEC-6 [17] = test: Cytotoxicity against rat IEC-6 cells assessed as inhibition of cell viability incubated for 72 hrs by CCK8 assay; type: functional, cell-based; settings: IEC-6, 72 h
Mus musculus [18] = test: Anti-aplastic anemia activity in C57BL/6J mouse model of immune-mediated bone marrow failure assessed as CD4+ T cells at 15 mg/kg, IG qd treated for 12 days by flow cytometry (reference value: 12.93 %); type: functional; settings: time 12 day
IEC-6 [19] = test: Induction of ferroptosis in rat IEC-6 cells assessed as increase in intracellular Ca2+ concentration at 10 uM by Fluo-4 AM dye based analysis; type: functional, cell-based
[20] = Drug metabolism in rat plasma assessed as cinnamic acid metabolite formation at 50 mg/kg, po measured for 24 hrs by HRMS analysis; type: ADME, organism-based; settings: in vivo
[21] = Drug metabolism in mouse kidney assessed as cinnamic acid metabolite formation at 50 mg/kg, po measured for 0.083 to 8 hrs by HPLC analysis; type: ADME, organism-based; settings: in vivo, time 0.083-8 hrs
[22] = Drug metabolism in rat plasma assessed as hydrolyzation/demethylation/hydroxylation-mediated metabolite formation at 50 mg/kg, po measured for 24 hrs by HRMS analysis; type: ADME, organism-based; settings: in vivo
[23] = Drug metabolism in mouse spleen assessed as cinnamic acid metabolite formation at 50 mg/kg, po measured for 0.083 to 8 hrs by HPLC analysis; type: ADME, organism-based; settings: in vivo, time 0.083-8 hrs
[24] = Drug metabolism in Sprague-Dawley rat plasma assessed as cinnamic acid metabolite formation at 5 mg/kg, iv measured for 24 hrs by HPLC analysis; type: ADME, organism-based; settings: in vivo
[25] = Drug metabolism in mouse kidney assessed as (4bR,9S)-1-(hydroxymethyl)-3,7-dimethoxy-11-methyl-6-oxo-6,8a,9,10-tetrahydro-5H-9,4b-(epiminoethano)phenanthren-4-yl cinnamate metabolite formation at 50 mg/kg, po measured for 0.083 to 8 hrs by HPLC analysis; type: ADME, organism-based; settings: in vivo, time 0.083-8 hrs
[26] = Drug metabolism in mouse liver assessed as (4bR,9S)-1-(hydroxymethyl)-3,7-dimethoxy-11-methyl-6-oxo-6,8a,9,10-tetrahydro-5H-9,4b-(epiminoethano)phenanthren-4-yl cinnamate metabolite formation at 50 mg/kg, po measured for 0.083 to 8 hrs by HPLC analysis; type: ADME, organism-based; settings: in vivo, time 0.083-8 hrs
[27] = Stability in mouse spleen assessed as compound remaining at 50 mg/kg, po measured for 0.083 to 8 hrs by HPLC analysis; type: ADME, organism-based; settings: in vivo, time 0.083-8 hrs
[28] = Drug metabolism in mouse lymph node assessed as cinnamic acid metabolite formation at 50 mg/kg, po measured for 0.083 to 8 hrs by HPLC analysis; type: ADME, organism-based; settings: in vivo, time 0.083-8 hrs
[29] = Stability in mouse lymph node assessed as compound remaining at 50 mg/kg, po measured for 0.083 to 8 hrs by HPLC analysis; type: ADME, organism-based; settings: in vivo, time 0.083-8 hrs
[30] = Drug metabolism in Sprague-Dawley rat plasma assessed as cinnamic acid metabolite formation at 50 mg/kg, po measured for 24 hrs by HPLC analysis; type: ADME, organism-based; settings: in vivo
[31] = Drug metabolism in rat plasma assessed as hydrolyzation/hydroxylation-mediated metabolite formation at 50 mg/kg, po measured for 24 hrs by HRMS analysis; type: ADME, organism-based; settings: in vivo

For `COC1=C[C@@H]2[C@@H]3Cc4c(CO)cc(OC)c(OC(=O)/C=C/c5ccccc5)c4[C@]2(CCN3C)CC1=O`, the IC50 (THP-1) was 125 µM, the bioavailability [1] was 59.2% and the Activity (Mus musculus [2]) was “Active”. The Activity (Mus musculus [3]) was “Active; All Mice Survived”, the Activity (Mus musculus [4]) was 35.23% and the Activity (Mus musculus [5]) was “Active”. For the same molecule, the Activity (CTLL-2 [6]) was “inactive”, the inhibition (CD8-positive T cell [7]) was “Active” and the inhibition (CD8-positive T cell [8]) was “Active”. The Activity (CTLL-2 [9]) was “inactive”, the inhibition (CD8-positive T cell [10]) was “Active” and the Activity (CTLL-2 [11]) was “Dose-dependent-effect”. The IC50 (RAW264.7) was 492 µM, the Activity (Mus musculus [12]) was “Active” and the Activity (CTLL-2 [13]) was “inactive”. For the same molecule, the inhibition (CD8-positive T cell [14]) was “Active”, the Activity (CTLL-2 [15]) was “inactive” and the Activity (CTLL-2 [16]) was “inactive”. The IC50 (IEC-6 [17]) was 84.3 µM, the Activity (Mus musculus [18]) was 37.87% and the Activity (IEC-6 [19]) was “Not active; Elevation Was Smaller Than In Mouse Ctll-2 Cells”.

For `COC1=C[C@@H]2[C@@H]3Cc4c(COC(=O)/C=C/c5ccccc5)cc(OC)c(OC(=O)/C=C/c5ccccc5)c4[C@]2(CCN3C)CC1=O`, the Drug metabolism [20] was “metabolite_notdetected”, the Drug metabolism [21] was “metabolite_detected” and the bioavailability [1] was 18%. For the same molecule, the Drug metabolism [22] was “metabolite_detected”, the Activity (Mus musculus [3]) was “Active” and the Drug metabolism [23] was “metabolite_detected”. The Drug metabolism [24] was “metabolite_detected”, the Drug metabolism [25] was “metabolite_detected” and the Drug metabolism [26] was “metabolite_detected”. The Stability [27] was “Unstable”, the Drug metabolism [28] was “metabolite_detected” and the Stability [29] was “Unstable”. The Drug metabolism [30] was “metabolite_detected” and the Drug metabolism [31] was “metabolite_detected”.

Source: ChEMBL document CHEMBL6177973, “A Novel Compound 3a-M1, from Metabolites of Sinomenine Derivative 3a, Exerts Potent Anti-Aplastic Anemia Activity via IP3R/ORAI-Mediated CTL Ferroptosis” (J Med Chem, 2025)
